Results: patent US9730447B2, “Fungicidal amides” (E I DU PONT DE NEMOURS AND COMPANY, priority 2013, dated 2017)
Marks after values point to notes of the source that are not given here.

Legend:
Format in all cases: in vivo
[1] = test system: Botrytis cinerea; assay: Test A: preventive spray on tomato seedlings, Botrytis cinerea (gray mold), visual disease rating
In short: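 Tomato seedlings sprayed to run-off with 40 ppm or 10 ppm suspensions (160 or 40 g ai/ha) in acetone/water with 250 ppm surfactant. Inoculated with B. cinerea spores next day, held saturated at 20 °C for 48 h, then 27 °C for 2 days. Visual rating, 0–100% disease control relative to controls.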

[2] = test system: Stagonospora nodorum (also known as Septoria nodorum); assay: Test B: preventive spray on wheat seedlings, Stagonospora nodorum (wheat glume blotch), visual disease rating
In short: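 Compounds in acetone/water (50/50) with 250 ppm Trem 014 surfactant were sprayed to run-off at 40 ppm (160 g ai/ha) or 10 ppm (40 g ai/ha). Seedlings were inoculated with S. nodorum spores the next day, then held 48 h saturated at 20 °C and 6 days in a growth chamber at 20 °C. Visual rating as % disease control vs untreated.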

[3] = test system: Septoria tritici; assay: Test C: preventive spray on wheat seedlings, Septoria tritici (wheat leaf blotch), visual disease rating
In short: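 Wheat seedlings sprayed to run-off at 40 ppm or 10 ppm (160 or 40 g ai/ha) in acetone/water with surfactant, inoculated with Septoria tritici spores next day. Held 48 h saturated at 24 °C, then 21 days at 20 °C. Visual rating scored as % disease control relative to controls.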

[4] = test system: Puccinia recondite f. sp. tritici; assay: Test D: preventive spray on wheat seedlings, Puccinia recondite f. sp. tritici (wheat leaf rust), visual disease rating
In short: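 Wheat seedlings sprayed to run-off with 40 ppm (160 g ai/ha) or 10 ppm (40 g ai/ha) suspension in acetone/water with 250 ppm surfactant, inoculated next day with leaf rust spores. After 24 h saturated at 20 °C then 6 days at 20 °C, visual rating of disease control (0–100) relative to controls.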

[5] = test system: Erysiphe graminis f. sp. tritici; assay: Test E: preventive spray on wheat seedlings, Erysiphe graminis f. sp. tritici (wheat powdery mildew), visual disease rating
In short: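 Wheat seedlings were sprayed to run-off with 40 or 10 ppm suspension (160 or 40 g ai/ha) and dusted with spores the next day. They were then kept 8 days at 20 °C. Disease was rated visually as % control relative to untreated controls (0–100).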

[6] = 100 = 100% disease control, 0 = no control relative to controls, unmarked values
[7] = 100 = 100% disease control, 0 = no control, unmarked values
[8] = values marked with asterisk (*), meaning not given

SMILES	Test A disease control rating [1, 6] [%]	Test B disease control rating [2, 7] [%]	Test C disease control rating [3, 7] [%]	Test D disease control rating [4, 7] [%]	Test E disease control rating [5, 7] [%]	Test A disease control rating [1, 8]	Test B disease control rating [2, 8]	Test C disease control rating [3, 8]	Test D disease control rating [4, 8]	Test E disease control rating [5, 8]
O=C(Nc1ccccc1-c1ccc(-n2ccc(-c3ccccc3)n2)nc1)c1ncccc1Cl [compound 53]	0	0	0	55	0					
O=C(Nc1ccccc1-c1cnc(-n2ccc(C(F)(F)F)n2)nc1)c1nccnc1Cl [compound 55]	0	0	100	91	0					
O=C(Nc1ccccc1-c1ccc(-n2ccc(C(F)(F)F)n2)nn1)c1ccccc1C(F)(F)F [compound 57]	0	0	32	100	0					
O=C(Nc1ccccc1-c1cnc(-n2cc(Cl)cn2)c(Cl)c1)c1ccccc1C(F)(F)F [compound 60]	34	0	100	100	99					
Cn1cc(C(=O)Nc2ccccc2-c2cnc(-n3cc(Cl)cn3)c(Cl)c2)c(C(F)F)n1 [compound 62]	84	0	100	100	98					
Cc1cc(-c2ccccc2NC(=O)c2ccccc2C(F)(F)F)cnc1-n1cc(Cl)cn1 [compound 63]	27	0	92	99	72					
Cc1cc(-c2ccccc2NC(=O)c2ncccc2C(F)(F)F)cnc1-n1cc(Cl)cn1 [compound 64]	98	60	100	100	96					
Cc1cc(-c2ccccc2NC(=O)c2cn(C)nc2C(F)F)cnc1-n1cc(Cl)cn1 [compound 65]	99	97	100	100	94					
O=C(Nc1ccccc1-c1ccc(-n2cc(Cl)cn2)nc1)c1ccccc1C(F)(F)F [compound 66]	32	0	18	89	0					
O=C(Nc1ccccc1-c1ccc(-n2cc(Cl)cn2)nc1)c1ncccc1Cl [compound 67]	7	0	62	90	0					
O=C(Nc1ccccc1-c1cnc(-n2ccc(Cl)n2)c(F)c1)c1ncccc1C(F)(F)F [compound 69]	99	100	100	100	100					
O=C(Nc1ccccc1-c1cnc(-n2cc(Cl)cn2)c(F)c1)c1ncccc1C(F)(F)F [compound 70]	99	99	100	100	100					
O=C(Nc1ccccc1-c1cnc(-n2ccc(Br)n2)c(F)c1)c1ncccc1C(F)(F)F [compound 71]	94	100	100	100	100					
O=C(Nc1ccccc1-c1cnc(-n2ccc(-c3ccccc3)n2)c(F)c1)c1ncccc1C(F)(F)F [compound 72]	92	0	100	97	91					
Cn1cc(C(=O)Nc2ccccc2-c2cnc(-n3ccc(Cl)n3)c(F)c2)c(C(F)F)n1 [compound 73]	96	100	100	100	100					
Cn1cc(C(=O)Nc2ccccc2-c2cnc(-n3cc(Cl)cn3)c(F)c2)c(C(F)F)n1 [compound 74]	96	0	100	100	100					
Cn1cc(C(=O)Nc2ccccc2-c2cnc(-n3ccc(Br)n3)c(F)c2)c(C(F)F)n1 [compound 75]	99	98	100	100	100					
Cn1cc(C(=O)Nc2ccccc2-c2cnc(-n3ccc(-c4ccccc4)n3)c(F)c2)c(C(F)F)n1 [compound 76]	99	0	100	100	99					
O=C(Nc1ccccc1-c1cnc(-n2ccc(Cl)n2)c(F)c1)c1ccccc1C(F)(F)F [compound 77]	74	0	100	100	98					
O=C(Nc1ccccc1-c1cnc(-n2cc(Cl)cn2)c(F)c1)c1ccccc1C(F)(F)F [compound 78]	28	0	100	100	97					
O=C(Nc1ccccc1-c1cnc(-n2ccc(Br)n2)c(F)c1)c1ccccc1C(F)(F)F [compound 79]	25	0	100	100	99					
O=C(Nc1ccccc1-c1cnc(-n2ccc(-c3ccccc3)n2)c(F)c1)c1ccccc1C(F)(F)F [compound 80]	0	0	100	88	0					
O=C(Nc1ccccc1-c1ccc(-n2nc(C(F)(F)F)cc2O)nc1)c1ncccc1C(F)(F)F [compound 82]						31* %	97* %	48* %	97* %	0* %
N#Cc1cnn(-c2ncc(-c3ccccc3NC(=O)c3ncccc3C(F)(F)F)cc2F)c1 [compound 85]	70	0	45	99	0					
